# In patent publication US20250262225A1, “COMPOSITION FOR TREATMENT OF COVID-19 COMPRISING TAURODEOXYCHOLIC ACID OR PHARMACEUTICALLY ACCEPTABLE SALT THEREOF AS ACTIVE INGREDIENT” (SHAPERON INC., priority 2021, published 2025):
# Key:
# [1] = test system: sepsis induced by intravenous LPS in dogs; test: canine LPS-induced sepsis (systemic inflammation) model; format: in vivo, dog; conditions: LPS i.v.
# Experimental: After LPS administration, blood pressure was monitored every 1 hour, blood was collected at 0, 1, 3, 6, 12, 18, 24, 36, and 48 h, and the animals were sacrificed at 48 h to complete the experiment.
# The survival rate was examined by checking the number of beagle dogs that died for 48 hours in the two treatment groups in which sepsis was induced in Example <2-1>.
# Blood pressure was measured hourly for 48 hours in the two treatment groups in which sepsis was induced in Example <2-1>.
# Blood urea nitrogen (BUN) and creatinine tests were performed as renal function tests. Specifically, blood was collected hourly for 48 hours from the two treatment groups in which sepsis was induced in Example <2-1>, serum was separated, and then BUN and […] concentrations in the serum were measured.
# Blood was collected hourly for 48 hours from the two treatment groups in which sepsis was induced in Example <2-1>, serum was separated, and then the inflammatory cytokine IL-1β in the serum was measured.
# [2] = phase 1 clinical trial: safety/tolerability and pharmacokinetics in healthy adult male volunteers; format: in vivo, human; conditions: healthy males
# Experimental: Forty healthy adult male volunteers in Korea were selected as subjects for the clinical trial. The clinical trial was conducted at Seoul National University Hospital (Seoul, Korea) and was targeted at people who met all of the selection criteria in [Table 1].
# A randomized, double-blind, standard treatment-based placebo-controlled trial group was assigned to evaluate drug safety/tolerability and pharmacokinetics (PK) in clinical trial subjects. As a therapeutic agent, NuSepin, an injectable clinical agent containing TDCA, was used.
# A screening test was performed on healthy male volunteers within 4 weeks (−28 d to −4 d) from the first administration date (1 d) of the study drug to select test subjects determined to be suitable for this clinical trial. […] In the morning on the study drug administration date (1 d), designated tests such as blood collection for pharmacokinetic analysis and safety evaluation were performed, and then the study drug or placebo was administered intravenously on an empty stomach. The test subjects were subjected to the clinical trial according to the set schedule and discharged from the hospital 1 day (2 d) after administration, and the subjects who completed all clinical trial schedules underwent a post-study visit between 4 d and 6 d.
# • Monitoring of adverse events such as subjective and objective symptoms • Physical examination • Vital signs • Electrocardiogram (12-Lead ECG) test • Clinical laboratory test • Local toxicity assessment • Continuous ECG and SpO2 monitoring
# Adverse events were described by dose group and treatment group based on severity and causal relationship with the stsudy drug, and the frequency and percentage of the number of test subjects with adverse events were compared and evaluated. Vital signs, electrocardiogram test, clinical laboratory tests, physical examination, monitoring of adverse events such as subjective and objective symptoms, continuous ECG and SpO2 monitoring, and the like were comprehensively reviewed, and statistical analysis was performed if necessary only on items determined to be clinically significant.
# Pharmacokinetic variables were obtained by a non-compartmental analysis method for subjects who completed this clinical trial using appropriate and validated pharmacokinetic software (for example, Phoenix WinNonlin® (Version 8.0 or higher, Pharsight, CA, USA)), and descriptive statistics (mean, standard deviation, and the like) were obtained for each dose group and treatment group.
# [3] = half-life estimate from non-clinical data; conditions: calculated based on estimates made from non-clinical data
# [4] = test system: mBMDM; test: TNF-α ELISA in LPS-primed mBMDM; format: cell-based, mouse; conditions: 10 ng/ml LPS 3 hours, then 0, 25, 100, 400 ng/ml TDCA 1 hour, FIG. 1C
# Experimental: After the time expired, the supernatant was collected, stored at −80° C., and then subjected to ELISA analysis.
# [5] = test system: mBMDM cells; test: intracellular cAMP concentration in LPS-stimulated mBMDM (chemiluminescent analysis); format: cell-based, mouse; conditions: 100 ng/ml LPS and 400 ng/ml TDCA simultaneously for 30 minutes; FIG. 1A
# Experimental: Specifically, the bone marrow extracted from C57BL/6N mouse was differentiated in RPMI medium supplemented with 10% FBS, 100 U/ml penicillin streptomycin, 55 μM 2-mercaptoethanol, and 10 ng/ml recombinant mouse granulocyte-macrophage colony-stimulating factor (GM-CSF) for 7 days.
# [6] = test system: mBMDM; test: qRT-PCR of inflammation-related factor transcription in LPS+BzATP-treated mBMDM; format: cell-based, mouse; conditions: 10 ng/ml LPS, 300 μM BzATP and 400 ng/ml TDCA simultaneously 1 hour, FIG. 1B
# Experimental: (§1) The bone marrow-derived macrophages of Example <1-1> were cultured in culture dishes at various densities and then collected (4×10^4, 5×10^5, 1×10^6 cells/well, 96-well, 24-well, and 12-well culture dishes, respectively). […] After the time expired, the cells were collected, stored at −80° C., and then subjected to qRT-PCR analysis.
# [7] = test system: mBMDM; test: IL-1β ELISA in mBMDM activated with LPS+ATP or LPS+BzATP; format: cell-based, mouse; conditions: then 0, 25, 100 or 400 ng/ml TDCA, FIG. 2B
# Experimental: as §1, with “supernatant was” for “cells were”, “ELISA” for “qRT-PCR”
# [8] = single i.v. NuSepin 0.1-1.6 mg/kg or placebo
substance,measurement,setting,value
sodium taurodeoxycholate [TDCA],survival rate,"[1]; TDCA i.v. 2, 1, 1 mg/kg at 12-hour intervals, 48 hours, half of placebo animals died, FIG. 3B",all animals administered with TDCA have survived until 48 hours
same,blood pressure (hypotensive shock),"[1]; TDCA i.v. 2, 1, 1 mg/kg, FIG. 3C",hypotensive shock tends to be inhibited
same,increase in level of BUN in the blood,"[1]; TDCA i.v. 2, 1, 1 mg/kg, FIG. 3D",suppressed
same,increase in level of creatinine in the blood,"[1]; TDCA i.v. 2, 1, 1 mg/kg, FIG. 3E",suppressed
same,IL-1β in serum,"[1]; TDCA i.v. 2, 1, 1 mg/kg, FIG. 3F",further inhibited than those in the placebo group
same,IL-8 in serum,"[1]; TDCA i.v. 2, 1, 1 mg/kg, FIG. 3G",further inhibited than those in the placebo group
same,PK properties,"[2]; single i.v. 0.1, 0.2, 0.4, 0.8, 1.6 mg/kg",concentration dependent manner
same,drug-related side effects,[2]; [8],one has mild IMD (immunomodulatory drugs)-related side effects
same,severity and outcome of side effects,[2]; [8],all of the side effects are not severe and recover without treatment
same,clinical trial subjects with side effects,"[2]; single i.v. NuSepin 0.1-1.6 mg/kg or placebo, 40 subjects",three of the clinical trial subjects have side effects
same,half-life of the drug,[3],approximately 1 hour
same,TNF-α produced by LPS,[4],decreased
same,cAMP concentration in cells,[5],recovered
same,intracellular transcriptional expression of ASC,[6],decreased
same,intracellular transcriptional expression of Caspase1,[6],decreased
same,intracellular transcriptional expression of IL-1β,[6],decreased
same,intracellular transcriptional expression of NLRP3,[6],decreased
same,concentration of IL-1β produced by inflammation activation,[7],decreases in proportion to the amount of TDCA used for treatment
